In patent publication US12077503B2, “Substituted cyclic amides and their use as herbicides” (FMC CORPORATION, priority 2015, dated 2024):

How the values were obtained:
Format in all cases: in vivo
[1] = test system: ragweed (common ragweed, Ambrosia elatior); assay: Test A preemergence; settings: Ambrosia artemisiifolia, pre-emergence, 240 h, read-out: Plant response rating, Ragweed; for pest or weed control at 125 g/ha: 125 g ai/ha, preemergence, visual rating after approx. 10 d, 0 to 100 scale where 0 is no effect and 100 is complete control; for pest or weed control at 31 g/ha: Preemergence, 31 g ai/ha, 0 to 100 scale (0 no effect, 100 complete control)
Summary of the method: (§1)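 Ratings of 0 (no effect) to 100 (complete control) come from visual comparison with untreated controls roughly 10 d after treatment. Test chemicals, formulated in a non-phytotoxic solvent mixture with surfactant, were applied either as a preemergence directed soil spray on seeded soil or postemergence to one- to two-leaf plants 2 to 10 cm tall.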

[2] = test system: ryegrass, Italian (Italian ryegrass, Lolium multiflorum); assay: Test A preemergence; settings: Lolium multiflorum, pre-emergence, 240 h, read-out: Plant response rating, Ryegrass, Italian; for pest or weed control at 125 g/ha: 125 g ai/ha, preemergence, visual rating after approx. 10 d, 0 to 100 scale where 0 is no effect and 100 is complete control; for pest or weed control at 31 g/ha: Preemergence, 31 g ai/ha, 0 to 100 scale (0 no effect, 100 complete control)
Summary of the method: as §1

[3] = test system: barnyardgrass (Echinochloa crus-galli); assay: Test A preemergence; settings: Echinochloa crus-galli, pre-emergence, 240 h, read-out: Plant response rating, Barnyardgrass; for pest or weed control at 125 g/ha: 125 g ai/ha, preemergence, visual rating after approx. 10 d, 0 to 100 scale where 0 is no effect and 100 is complete control; for pest or weed control at 31 g/ha: Preemergence, 31 g ai/ha, 0 to 100 scale (0 no effect, 100 complete control)
Summary of the method: as §1

Kochia (Kochia scoparia) [4] = assay: Test A preemergence; settings: Bassia scoparia, pre-emergence, 240 h, read-out: Plant response rating, Kochia; for pest or weed control at 125 g/ha: 125 g ai/ha, preemergence, visual rating after approx. 10 d, 0 to 100 scale where 0 is no effect and 100 is complete control; for pest or weed control at 31 g/ha: Preemergence, 31 g ai/ha, 0 to 100 scale (0 no effect, 100 complete control)
Summary of the method: as §1

[5] = test system: pigweed (Amaranthus retroflexus); assay: Test A preemergence; settings: Amaranthus retroflexus, pre-emergence, 240 h, read-out: Plant response rating, Pigweed; for pest or weed control at 125 g/ha: 125 g ai/ha, preemergence, visual rating after approx. 10 d, 0 to 100 scale where 0 is no effect and 100 is complete control; for pest or weed control at 31 g/ha: Preemergence, 31 g ai/ha, 0 to 100 scale (0 no effect, 100 complete control)
[6] = test system: ragweed (common ragweed, Ambrosia elatior); assay: Test A postemergence; settings: Ambrosia artemisiifolia, post-emergence, 240 h, read-out: Plant response rating, Ragweed; for pest or weed control at 125 g/ha: 125 g ai/ha, postemergence, visual injury after approximately 10 d, 0 to 100 scale (0 no effect, 100 complete control); for pest or weed control at 31 g/ha: Postemergence, 31 g ai/ha, visual injury after approx. 10 d, 0 to 100 scale, 0 no effect, 100 complete control
Summary of the method: as §1

[7] = test system: wheat (Triticum aestivum); assay: Test A postemergence; settings: Triticum aestivum, post-emergence, 240 h, Postemergence, 31 g ai/ha; visual injury after approx. 10 d; 0 to 100 scale, 0 no effect, 100 complete control; read-out: Plant response rating, Wheat
Summary of the method: as §1

[8] = test system: blackgrass (Alopecurus myosuroides); assay: Test A postemergence; settings: Alopecurus myosuroides, post-emergence, 240 h, read-out: Plant response rating, Blackgrass; for pest or weed control at 125 g/ha: 125 g ai/ha, postemergence, visual injury after approximately 10 d, 0 to 100 scale (0 no effect, 100 complete control); for pest or weed control at 31 g/ha: Postemergence, 31 g ai/ha, visual injury after approx. 10 d, 0 to 100 scale, 0 no effect, 100 complete control
Summary of the method: as §1

[9] = test system: ryegrass, Italian (Italian ryegrass, Lolium multiflorum); assay: Test A postemergence; settings: Lolium multiflorum, post-emergence, 240 h, read-out: Plant response rating, Ryegrass, Italian; for pest or weed control at 125 g/ha: 125 g ai/ha, postemergence, visual injury after approximately 10 d, 0 to 100 scale (0 no effect, 100 complete control); for pest or weed control at 31 g/ha: Postemergence, 31 g ai/ha, visual injury after approx. 10 d, 0 to 100 scale, 0 no effect, 100 complete control
Summary of the method: as §1

[10] = test system: barnyardgrass (Echinochloa crus-galli); assay: Test A postemergence; settings: Echinochloa crus-galli, post-emergence, 240 h, read-out: Plant response rating, Barnyardgrass; for pest or weed control at 125 g/ha: 125 g ai/ha, postemergence, visual injury after approximately 10 d, 0 to 100 scale (0 no effect, 100 complete control); for pest or weed control at 31 g/ha: Postemergence, 31 g ai/ha, visual injury after approx. 10 d, 0 to 100 scale, 0 no effect, 100 complete control
Summary of the method: as §1

Kochia (Kochia scoparia) [11] = assay: Test A postemergence; settings: Bassia scoparia, post-emergence, 240 h, read-out: Plant response rating, Kochia; for pest or weed control at 125 g/ha: 125 g ai/ha, postemergence, visual injury after approximately 10 d, 0 to 100 scale (0 no effect, 100 complete control); for pest or weed control at 31 g/ha: Postemergence, 31 g ai/ha, visual injury after approx. 10 d, 0 to 100 scale, 0 no effect, 100 complete control
Summary of the method: as §1

[12] = test system: Galium (catchweed bedstraw, Galium aparine); assay: Test A postemergence; settings: Galium, post-emergence, 240 h, read-out: Plant response rating, Galium; for pest or weed control at 125 g/ha: 125 g ai/ha, postemergence, visual injury after approximately 10 d, 0 to 100 scale (0 no effect, 100 complete control); for pest or weed control at 31 g/ha: Postemergence, 31 g ai/ha, visual injury after approx. 10 d, 0 to 100 scale, 0 no effect, 100 complete control
Summary of the method: as §1

corn (Zea mays) = assay: Test A postemergence; settings: Zea mays, post-emergence, 240 h; for Corn plant response rating (crop injury, 0 = no effect, 100 = complete kill) at 125 g/ha: 125 g ai/ha, postemergence, visual injury after approximately 10 d, 0 to 100 scale (0 no effect, 100 complete control); for Corn plant response rating (crop injury, 0 = no effect, 100 = complete kill) at 31 g/ha: Postemergence, 31 g ai/ha, visual injury after approx. 10 d, 0 to 100 scale, 100 complete control
Summary of the method: as §1

[13] = test system: giant foxtail (Setaria faberii); assay: Test A postemergence; settings: Setaria faberi, post-emergence, 240 h, read-out: Plant response rating, Foxtail, Giant; for pest or weed control at 125 g/ha: 125 g ai/ha, postemergence, visual injury after approximately 10 d, 0 to 100 scale (0 no effect, 100 complete control); for pest or weed control at 31 g/ha: Postemergence, 31 g ai/ha, visual injury after approx. 10 d, 0 to 100 scale, 0 no effect, 100 complete control
Summary of the method: as §1

[14] = test system: pigweed (Amaranthus retroflexus); assay: Test A postemergence; settings: Amaranthus retroflexus, post-emergence, 240 h, read-out: Plant response rating, Pigweed; for pest or weed control at 125 g/ha: 125 g ai/ha, postemergence, visual injury after approximately 10 d, 0 to 100 scale (0 no effect, 100 complete control); for pest or weed control at 31 g/ha: Postemergence, 31 g ai/ha, visual injury after approx. 10 d, 0 to 100 scale, 0 no effect, 100 complete control
Summary of the method: as §1

| Structure (SMILES) | pest or weed control at 125 g/ha [1] [%] | pest or weed control at 31 g/ha [1] [%] | pest or weed control at 125 g/ha [2] [%] | pest or weed control at 31 g/ha [2] [%] | pest or weed control at 125 g/ha [3] [%] | pest or weed control at 31 g/ha [3] [%] | pest or weed control at 125 g/ha (Kochia (Kochia scoparia) [4]) [%] | pest or weed control at 31 g/ha (Kochia (Kochia scoparia) [4]) [%] | pest or weed control at 125 g/ha [5] [%] | pest or weed control at 31 g/ha [5] [%] | pest or weed control at 125 g/ha [6] [%] | pest or weed control at 31 g/ha [6] [%] | plant injury at 31 g/ha [7] [%] | pest or weed control at 125 g/ha [8] [%] | pest or weed control at 31 g/ha [8] [%] | pest or weed control at 125 g/ha [9] [%] | pest or weed control at 31 g/ha [9] [%] | pest or weed control at 125 g/ha [10] [%] | pest or weed control at 31 g/ha [10] [%] | pest or weed control at 125 g/ha (Kochia (Kochia scoparia) [11]) [%] | further results |
| --- | --- | --- | --- | --- | --- | --- | --- | --- | --- | --- | --- | --- | --- | --- | --- | --- | --- | --- | --- | --- | --- |
| CSc1ccccc1NC(=O)[C@H]1C(=O)N(C)C[C@@H]1c1cc(C)c(C)c(C)c1 [Compound 798] | 0 | 0 | 0 | 0 | 80 | 20 | 20 | 0 | 40 | 30 | 0 | 0 | 0 | 40 | 0 | 40 | 0 | 80 | 40 | 0 | pest or weed control at 31 g/ha (Kochia (Kochia scoparia) [11]): 0%; pest or weed control at 125 g/ha [12]: 20%; pest or weed control at 31 g/ha [12]: 0%; Corn plant response rating (crop injury, 0 = no effect, 100 = complete kill) at 125 g/ha (corn (Zea mays)): 40%; Corn plant response rating (crop injury, 0 = no effect, 100 = complete kill) at 31 g/ha (corn (Zea mays)): 0%; pest or weed control at 125 g/ha [13]: 70%; pest or weed control at 31 g/ha [13]: 20%; pest or weed control at 125 g/ha [14]: 20%; pest or weed control at 31 g/ha [14]: 0% |
| CSc1ccccc1NC(=O)[C@H]1C(=O)N(C)C[C@@H]1c1ccc(C(F)F)cc1 [Compound 799] | 0 | 0 | 0 | 0 | 40 | 0 | 40 | 0 | 40 | 30 | 0 | 0 | 0 | 30 | 0 | 20 | 0 | 70 | 40 | 30 | pest or weed control at 31 g/ha (Kochia (Kochia scoparia) [11]): 0%; pest or weed control at 125 g/ha [12]: 50%; pest or weed control at 31 g/ha [12]: 0%; Corn plant response rating (crop injury, 0 = no effect, 100 = complete kill) at 125 g/ha (corn (Zea mays)): 20%; Corn plant response rating (crop injury, 0 = no effect, 100 = complete kill) at 31 g/ha (corn (Zea mays)): 0%; pest or weed control at 125 g/ha [13]: 80%; pest or weed control at 31 g/ha [13]: 40%; pest or weed control at 125 g/ha [14]: 20%; pest or weed control at 31 g/ha [14]: 0% |
| Cc1cc(F)cc([C@H]2CN(C)C(=O)[C@@H]2C(=O)Nc2ccc(F)c(F)c2F)c1 [Compound 801] | 60 | 20 | 20 | 0 | 90 | 80 | 70 | 40 | 30 | 30 | 50 | 0 | 0 | 60 | 20 | 60 | 0 | 90 | 80 | 40 | pest or weed control at 31 g/ha (Kochia (Kochia scoparia) [11]): 20%; pest or weed control at 125 g/ha [12]: 60%; pest or weed control at 31 g/ha [12]: 30%; Corn plant response rating (crop injury, 0 = no effect, 100 = complete kill) at 125 g/ha (corn (Zea mays)): 60%; Corn plant response rating (crop injury, 0 = no effect, 100 = complete kill) at 31 g/ha (corn (Zea mays)): 20%; pest or weed control at 125 g/ha [13]: 90%; pest or weed control at 31 g/ha [13]: 70%; pest or weed control at 125 g/ha [14]: 30%; pest or weed control at 31 g/ha [14]: 30% |
